Where no end group is shown, it is not given here.
Tests used:
[1] = test system: F4/80; assay: qPCR tumor F4/80 mRNA; type: in vivo, murine; conditions: 2.5 μg intratumoral 3×/week; 2^−ΔΔCT; p=0.008, n=10
Description: (§1) The RNeasy Mini Kit (QIAGEN, Venlo, the Netherlands) was used for tumor mRNA extraction. The extracted mRNA was then converted to cDNA making use of the High Capacity cDNA Reverse Transcription Kit (Applied Biosystems, Foster City, CA). Quantitative polymerase chain reactions (qPCR) based on the TaqMan principle were conducted to compare gene expression between samples. Primers and probes (Table 2; Integrated DNA Technologies, Haasrode, Belgium), were diluted to the prescribed working concentrations in RNase-free water and added to the reaction mix in a MicroAmp® fast optical 96-well reaction plate (Applied Biosystems), together with 50 ng sample cDNA per reaction. The actual thermocycler program consisted of 2 minutes on 50 °C, 10 minutes on 95 °C and 40 cycles of 15 seconds on 95 °C followed by 1 minute on 60 °C. Analysis of the obtained CT was based on the 2^−ΔΔC^T method, opting for 18S ribosomal 1 RNA as an internal control.

[2] = test system: IL-12; assay: qPCR tumor IL-12 mRNA (M1 marker); type: in vivo, murine; conditions: 2.5 μg intratumoral 3×/week; 2^−ΔΔCT; not reaching statistical significance
Description: as §1

[3] = test system: monocytic THP-1; conditions: as a single stimulus; cited from earlier work
Text: Perception of the role of the immune system in tumor development has changed over time. Tumor inflammation is indeed the seventh hallmark of malignant disease, but the sizeable myeloid population present has been mostly observed to take on a tumor-promoting role rather than exert its protective, phagocytic and cytotoxic function. This shift could be attributed to the phagocytes' versatility and their ability to adopt distinct phenotypes influenced by locally produced factors. Rather than depleting the tumoral myeloid cell population, it could be beneficial to tackle its pola ...

For “CXCL4^47–70: synthetic human carboxy-terminal peptide restricted to the last 24 amino acids of CXCL4, Fmoc chemistry (NGRKICLDLQAPLYKKIIKKLLES; not fully specified (N-terminus))”, the “F4/80 mRNA level versus control” value [1] is given as “significantly higher”, the “IL-12 mRNA versus control” value [2] is given as “only modestly increased” and the “THP-1 migration, single stimulus” value [3] is given as “not to stimulate monocytic THP-1 migration”.
